Patent US12428408B2, “Fused heterocyclic mescaline derivatives” (Enveric Biosciences Canada Inc., priority 2022, dated 2025)
Where two headings read alike, the source gives them in different places.

What was measured:
[1] = molecular target: T1, human serotonin transporter (SERT) (Homo sapiens, UniProt P31645); assay: biochemical; type: binding
T1 construct: purchased PerkinElmer RBHSTM400UA

5-HT2B (h) = molecular target: T2, 5-HT2B (h) (Homo sapiens, UniProt P41595); assay: Competition assay to measure binding affinity at 5-HT2B receptor; conditions: test ligand 10 μM; [3H]mesulergine 2 nM
T2 construct: host or cells: CHO cells
T2 sequence (P41595 whole entry): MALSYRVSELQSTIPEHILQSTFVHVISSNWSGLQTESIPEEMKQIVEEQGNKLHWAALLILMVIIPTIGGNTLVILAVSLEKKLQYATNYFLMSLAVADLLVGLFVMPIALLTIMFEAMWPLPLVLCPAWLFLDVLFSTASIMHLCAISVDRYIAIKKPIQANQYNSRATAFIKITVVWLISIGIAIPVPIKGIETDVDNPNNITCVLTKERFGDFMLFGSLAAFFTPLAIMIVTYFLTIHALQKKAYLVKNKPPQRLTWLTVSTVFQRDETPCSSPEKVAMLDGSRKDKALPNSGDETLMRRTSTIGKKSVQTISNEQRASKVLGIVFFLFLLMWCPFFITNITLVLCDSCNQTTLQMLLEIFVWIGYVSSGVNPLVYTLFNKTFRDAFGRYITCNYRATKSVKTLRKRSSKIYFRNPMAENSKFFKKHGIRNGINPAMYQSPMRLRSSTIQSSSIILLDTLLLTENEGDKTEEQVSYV

D2 (h) = molecular target: T3, D2 (h) (Homo sapiens, UniProt P14416); assay: Competition assay to measure binding affinity at D2L receptor; conditions: test ligand 10 μM; [3H]methylspiperone 0.3 nM
T3 construct: host or cells: HEK-293 cells
T3 sequence (P14416 whole entry): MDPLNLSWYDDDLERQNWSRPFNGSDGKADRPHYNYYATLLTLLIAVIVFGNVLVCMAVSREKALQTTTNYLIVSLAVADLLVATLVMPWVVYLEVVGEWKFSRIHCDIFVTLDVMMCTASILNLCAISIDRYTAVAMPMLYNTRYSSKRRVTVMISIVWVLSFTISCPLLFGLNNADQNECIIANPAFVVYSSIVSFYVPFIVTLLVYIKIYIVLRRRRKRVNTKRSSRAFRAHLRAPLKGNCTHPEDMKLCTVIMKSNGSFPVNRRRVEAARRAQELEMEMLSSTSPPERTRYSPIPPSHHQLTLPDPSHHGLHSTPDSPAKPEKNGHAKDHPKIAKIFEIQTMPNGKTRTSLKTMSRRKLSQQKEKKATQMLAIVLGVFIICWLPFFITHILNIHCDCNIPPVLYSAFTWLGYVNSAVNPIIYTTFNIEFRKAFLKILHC

5-HT1A receptor [2] = molecular target: T4, 5-HT1A receptor (Homo sapiens, UniProt P08908); assay: Functional 5-HT1A receptor cAMP assay in CHO-K1/5-HT1A/Gα15 cells; type: cell-based; conditions: for 5-HT1A receptor engagement (change in cAMP levels), in words: +5-HT1A cells, 4 μM forskolin, FIGS. 37B-37H
T4 construct: purchased Perkin Elmer 6110501400UA
T4 sequence (P08908 1-422): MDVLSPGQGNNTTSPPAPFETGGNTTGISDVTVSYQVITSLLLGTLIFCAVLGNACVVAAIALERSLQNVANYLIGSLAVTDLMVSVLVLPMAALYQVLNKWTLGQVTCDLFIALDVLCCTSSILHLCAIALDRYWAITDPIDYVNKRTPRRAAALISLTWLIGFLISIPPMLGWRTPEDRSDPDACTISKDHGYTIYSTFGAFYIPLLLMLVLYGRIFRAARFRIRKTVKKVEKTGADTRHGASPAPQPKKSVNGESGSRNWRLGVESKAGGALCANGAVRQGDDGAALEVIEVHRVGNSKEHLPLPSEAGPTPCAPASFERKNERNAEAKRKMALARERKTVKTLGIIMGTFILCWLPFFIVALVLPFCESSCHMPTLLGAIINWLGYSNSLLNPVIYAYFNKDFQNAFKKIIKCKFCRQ

5-HT2C (h) = molecular target: T5, 5-HT2C (h) (Homo sapiens, UniProt P28335); assay: Competition assay to measure binding affinity at 5-HT2C receptor; conditions: test ligand 10 μM; [125I](±)DOI 0.1 nM
T5 construct: host or cells: HEK-293 cells
T5 sequence (P28335 33-458): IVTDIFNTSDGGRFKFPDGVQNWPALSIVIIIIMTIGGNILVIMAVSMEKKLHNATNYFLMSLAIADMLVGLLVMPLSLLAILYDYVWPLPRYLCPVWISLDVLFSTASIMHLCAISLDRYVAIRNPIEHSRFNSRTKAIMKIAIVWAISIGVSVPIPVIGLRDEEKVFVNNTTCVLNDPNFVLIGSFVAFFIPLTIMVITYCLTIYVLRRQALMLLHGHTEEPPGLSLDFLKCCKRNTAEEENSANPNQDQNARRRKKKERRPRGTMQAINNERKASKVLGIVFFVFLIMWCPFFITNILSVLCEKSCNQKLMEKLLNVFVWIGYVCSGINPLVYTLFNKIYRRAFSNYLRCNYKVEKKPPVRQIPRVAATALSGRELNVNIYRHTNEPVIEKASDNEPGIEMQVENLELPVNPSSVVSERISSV

D3 (h) = molecular target: T6, D3 (h) (Homo sapiens, UniProt P35462); assay: Competition assay to measure binding affinity at D3 receptor; conditions: test ligand 10 μM; [3H]methylspiperone […]
T6 construct: host or cells: CHO cells

NET (h) = molecular target: T7, NET (h) (Homo sapiens, UniProt P23975); assay: Competition assay to measure binding affinity at norepinephrine transporter (NET); conditions: test ligand 10 μM; [3H]nisoxetine 1 nM
T7 construct: host or cells: CHO cells
T7 sequence (P23975 whole entry): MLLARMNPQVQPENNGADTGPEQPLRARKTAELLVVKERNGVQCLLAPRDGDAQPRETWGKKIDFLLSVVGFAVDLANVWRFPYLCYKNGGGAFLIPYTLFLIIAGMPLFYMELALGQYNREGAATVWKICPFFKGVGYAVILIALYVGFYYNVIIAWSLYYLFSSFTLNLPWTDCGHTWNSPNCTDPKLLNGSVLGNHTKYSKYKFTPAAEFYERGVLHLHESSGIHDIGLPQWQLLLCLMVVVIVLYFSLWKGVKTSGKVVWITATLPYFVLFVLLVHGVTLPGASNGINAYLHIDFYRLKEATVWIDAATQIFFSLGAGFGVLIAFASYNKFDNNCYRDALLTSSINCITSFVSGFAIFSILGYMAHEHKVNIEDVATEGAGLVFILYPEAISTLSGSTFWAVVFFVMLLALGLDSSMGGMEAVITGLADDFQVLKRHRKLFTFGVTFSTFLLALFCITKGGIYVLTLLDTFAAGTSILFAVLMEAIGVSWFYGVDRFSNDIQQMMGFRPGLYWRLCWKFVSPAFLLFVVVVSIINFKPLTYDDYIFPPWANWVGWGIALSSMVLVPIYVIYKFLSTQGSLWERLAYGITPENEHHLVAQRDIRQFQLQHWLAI

alpha2A (h) = molecular target: T8, alpha2A (h) (Homo sapiens, UniProt P08913); assay: Competition assay to measure binding affinity at alpha2A receptor; conditions: test ligand 10 μM, [3H]RX 821002 1 nM; for inhibition at 10 µM: read-out: α-2A, percent of control-specific binding
T8 construct: host or cells: CHO cells
T8 sequence (P08913 1-465): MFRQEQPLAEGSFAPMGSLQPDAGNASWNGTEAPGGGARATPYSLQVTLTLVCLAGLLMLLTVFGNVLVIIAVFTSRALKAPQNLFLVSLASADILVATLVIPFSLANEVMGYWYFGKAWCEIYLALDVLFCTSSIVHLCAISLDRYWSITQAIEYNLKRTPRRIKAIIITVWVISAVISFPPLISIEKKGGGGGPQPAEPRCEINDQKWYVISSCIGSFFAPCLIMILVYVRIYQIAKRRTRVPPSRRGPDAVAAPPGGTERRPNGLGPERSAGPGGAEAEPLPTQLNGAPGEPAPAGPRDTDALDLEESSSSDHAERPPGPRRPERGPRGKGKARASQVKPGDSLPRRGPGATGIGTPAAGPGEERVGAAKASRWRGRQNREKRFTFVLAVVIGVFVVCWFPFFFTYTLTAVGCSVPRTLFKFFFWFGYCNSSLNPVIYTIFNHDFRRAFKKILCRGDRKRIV

MT1 (ML1A) (h) = molecular target: T9, MT1 (ML1A) (h) (Homo sapiens, UniProt P48039); assay: Competition assay to measure binding affinity at MT1 receptor; conditions: test ligand 10 μM; [125I]2-iodomelatonin 0.01 nM
T9 construct: host or cells: CHO cells
T9 sequence (P48039 whole entry): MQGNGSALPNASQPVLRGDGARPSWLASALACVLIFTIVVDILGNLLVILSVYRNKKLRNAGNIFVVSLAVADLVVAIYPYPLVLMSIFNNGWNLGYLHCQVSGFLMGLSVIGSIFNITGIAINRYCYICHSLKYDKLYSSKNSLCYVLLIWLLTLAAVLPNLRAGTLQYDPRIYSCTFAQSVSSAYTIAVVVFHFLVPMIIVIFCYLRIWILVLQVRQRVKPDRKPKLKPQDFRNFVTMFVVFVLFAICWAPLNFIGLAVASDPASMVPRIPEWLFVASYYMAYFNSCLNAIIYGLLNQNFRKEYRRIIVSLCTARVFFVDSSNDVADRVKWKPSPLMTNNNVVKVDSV

5-HT7 (h) = molecular target: T10, 5-HT7 (h) (Homo sapiens, UniProt P34969); assay: Competition assay to measure binding affinity at 5-HT7 receptor; conditions: test ligand 10 μM; [3H]LSD 4 nM
T10 construct: host or cells: HEK-293 cells
T10 sequence (P34969 whole entry): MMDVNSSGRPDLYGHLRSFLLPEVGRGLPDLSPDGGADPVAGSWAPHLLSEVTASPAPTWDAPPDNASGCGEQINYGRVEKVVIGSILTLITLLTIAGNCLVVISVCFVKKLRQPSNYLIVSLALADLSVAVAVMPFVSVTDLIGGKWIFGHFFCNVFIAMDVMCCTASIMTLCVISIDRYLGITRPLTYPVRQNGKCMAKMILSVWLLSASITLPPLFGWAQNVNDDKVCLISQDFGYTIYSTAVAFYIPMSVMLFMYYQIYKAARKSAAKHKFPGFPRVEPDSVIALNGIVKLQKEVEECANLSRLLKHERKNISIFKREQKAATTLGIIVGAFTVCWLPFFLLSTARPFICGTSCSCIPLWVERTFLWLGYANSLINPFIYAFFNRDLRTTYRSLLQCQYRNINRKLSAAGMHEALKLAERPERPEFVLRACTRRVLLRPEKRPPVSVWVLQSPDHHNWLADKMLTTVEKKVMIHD

5-HT1B (h) = molecular target: T11, 5-HT1B (h) (Homo sapiens, UniProt P28222); assay: Competition assay to measure binding affinity at 5-HT1B receptor; conditions: test ligand 10 μM; [3H]GR125743 1 nM
T11 construct: host or cells: Chem-1 (RBL) cells
T11 sequence (P28222 whole entry): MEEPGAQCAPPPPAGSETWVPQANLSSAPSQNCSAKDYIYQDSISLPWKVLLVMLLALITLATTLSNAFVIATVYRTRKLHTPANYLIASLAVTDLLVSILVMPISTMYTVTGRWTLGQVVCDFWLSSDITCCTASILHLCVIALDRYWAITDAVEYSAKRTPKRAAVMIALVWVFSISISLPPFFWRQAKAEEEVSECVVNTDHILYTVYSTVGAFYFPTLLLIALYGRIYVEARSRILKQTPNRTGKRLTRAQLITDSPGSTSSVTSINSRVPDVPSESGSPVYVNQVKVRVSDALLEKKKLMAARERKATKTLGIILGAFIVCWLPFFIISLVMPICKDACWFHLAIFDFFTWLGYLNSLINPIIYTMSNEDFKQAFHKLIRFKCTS

5-HT1D (r) = molecular target: T12, 5-HT1D (r) (Rattus norvegicus, UniProt P28565); assay: Competition assay to measure binding affinity at 5-HT1D receptor; conditions: test ligand 10 μM; [3H]serotonin 1 nM
T12 construct: host or cells: CHO cells
T12 sequence (P28565 whole entry): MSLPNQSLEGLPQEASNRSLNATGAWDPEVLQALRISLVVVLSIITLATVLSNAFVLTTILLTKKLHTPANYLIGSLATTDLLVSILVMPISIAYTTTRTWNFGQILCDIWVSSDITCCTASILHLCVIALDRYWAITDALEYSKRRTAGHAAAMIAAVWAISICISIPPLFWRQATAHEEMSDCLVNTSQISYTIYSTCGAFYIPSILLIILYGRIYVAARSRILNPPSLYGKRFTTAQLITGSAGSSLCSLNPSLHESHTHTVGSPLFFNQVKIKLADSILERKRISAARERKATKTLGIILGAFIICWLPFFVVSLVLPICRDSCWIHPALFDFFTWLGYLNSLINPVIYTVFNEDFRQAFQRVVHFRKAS

DAT (h) = molecular target: T13, DAT (h) (Homo sapiens, UniProt Q01959); assay: Competition assay to measure binding affinity at dopamine transporter (DAT); conditions: test ligand 10 μM; [3H]BTCP 4 nM
T13 construct: host or cells: CHO cells
T13 sequence (Q01959 whole entry): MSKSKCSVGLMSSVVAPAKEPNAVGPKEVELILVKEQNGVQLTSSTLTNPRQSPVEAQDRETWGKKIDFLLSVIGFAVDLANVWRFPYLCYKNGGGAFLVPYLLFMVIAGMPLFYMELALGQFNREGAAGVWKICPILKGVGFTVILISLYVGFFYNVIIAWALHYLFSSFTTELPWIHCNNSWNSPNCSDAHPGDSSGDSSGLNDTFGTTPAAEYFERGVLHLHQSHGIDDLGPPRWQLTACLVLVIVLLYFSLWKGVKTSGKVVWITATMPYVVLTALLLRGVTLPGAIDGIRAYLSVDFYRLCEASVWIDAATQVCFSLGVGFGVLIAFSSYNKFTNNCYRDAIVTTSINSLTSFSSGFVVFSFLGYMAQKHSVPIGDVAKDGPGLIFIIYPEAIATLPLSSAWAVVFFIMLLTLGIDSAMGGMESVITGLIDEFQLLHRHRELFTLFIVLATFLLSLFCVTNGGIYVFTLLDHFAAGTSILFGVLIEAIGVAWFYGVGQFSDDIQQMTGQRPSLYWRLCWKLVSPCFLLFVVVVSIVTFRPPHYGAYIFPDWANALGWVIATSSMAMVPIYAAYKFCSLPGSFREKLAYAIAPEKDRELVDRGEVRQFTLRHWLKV

5-HT2A receptor = 5-HT2A receptor (Homo sapiens, UniProt P28223); assay: 5-HT2A receptor radioligand competition assay (SPA)
Sequence of 5-HT2A receptor (P28223 whole entry): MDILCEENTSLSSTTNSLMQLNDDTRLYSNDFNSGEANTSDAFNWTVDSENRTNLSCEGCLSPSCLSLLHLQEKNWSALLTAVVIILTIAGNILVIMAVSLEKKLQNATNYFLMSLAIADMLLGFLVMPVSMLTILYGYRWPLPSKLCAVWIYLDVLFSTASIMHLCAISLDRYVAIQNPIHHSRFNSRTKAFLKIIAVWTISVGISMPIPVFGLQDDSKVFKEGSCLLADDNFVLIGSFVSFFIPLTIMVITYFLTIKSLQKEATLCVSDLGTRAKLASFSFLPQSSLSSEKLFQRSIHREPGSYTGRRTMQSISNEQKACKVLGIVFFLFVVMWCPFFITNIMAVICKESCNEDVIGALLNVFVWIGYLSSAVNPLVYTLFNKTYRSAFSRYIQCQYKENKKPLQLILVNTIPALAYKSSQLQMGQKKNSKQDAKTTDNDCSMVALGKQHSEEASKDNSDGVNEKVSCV

5-HT1A receptor [3] = molecular target: T4, 5-HT1A receptor; assay: 5-HT1A receptor radioligand competition assay (SPA); type: binding; conditions: for Ki: competition with 0.5 nM 8-hydroxy-DPAT [3H], test compound 3 nM to 1 mM, read-out: 5-HT1A, Ki
[4] = tested on: C57BL/6-Elite male and female mice; assay: Ear-Scratch Response (ESR) assay; type: in vivo, mouse; conditions: i.p. 6 mg/kg, 15-to-30-minute window following drug administration
[5] = tested on: C57BL/6-Elite male and female mice; assay: Head Twitch Response (HTR) assay; type: in vivo, mouse; conditions: i.p. 6 mg/kg, 15-to-30-minute window following drug administration

T1 sequence (P31645 whole entry): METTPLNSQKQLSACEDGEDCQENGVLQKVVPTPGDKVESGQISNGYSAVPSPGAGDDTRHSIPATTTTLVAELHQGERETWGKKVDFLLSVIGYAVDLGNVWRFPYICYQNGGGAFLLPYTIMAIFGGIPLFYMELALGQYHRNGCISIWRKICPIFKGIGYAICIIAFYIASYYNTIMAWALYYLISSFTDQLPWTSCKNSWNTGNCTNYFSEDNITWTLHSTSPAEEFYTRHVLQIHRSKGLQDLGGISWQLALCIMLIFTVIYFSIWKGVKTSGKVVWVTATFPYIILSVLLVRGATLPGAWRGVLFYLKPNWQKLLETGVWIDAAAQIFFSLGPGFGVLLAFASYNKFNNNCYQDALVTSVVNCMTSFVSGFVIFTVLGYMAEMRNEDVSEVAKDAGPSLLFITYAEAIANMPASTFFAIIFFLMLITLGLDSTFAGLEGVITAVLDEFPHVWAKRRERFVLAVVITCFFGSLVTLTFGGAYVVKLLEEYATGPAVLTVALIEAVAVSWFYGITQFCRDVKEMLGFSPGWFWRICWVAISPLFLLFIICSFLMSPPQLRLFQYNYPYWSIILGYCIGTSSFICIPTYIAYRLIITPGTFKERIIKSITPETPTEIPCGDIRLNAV

Compound	Ki [1]	HT2B, percent of control-specific binding (5-HT2B (h))	D2, percent of control-specific binding (D2 (h))	EC50 (5-HT1A receptor [2])	HT2C, percent of control-specific binding (5-HT2C (h))	D3, percent of control-specific binding (D3 (h))	NET, percent of control-specific binding (NET (h))	inhibition at 10 µM (alpha2A (h))	MT1, percent of control-specific binding (MT1 (ML1A) (h))	HT7, percent of control-specific binding (5-HT7 (h))	HT1B, percent of control-specific binding (5-HT1B (h))	HT1D, percent of control-specific binding (5-HT1D (r))	DAT, percent of control-specific binding (DAT (h))	Ki (5-HT2A receptor)	Ki (5-HT1A receptor [3])	SERT binding, binding curve in words [1]	5-HT1A receptor engagement (change in cAMP levels), in words (5-HT1A receptor [2])	further results
FC1(F)Oc2ccc(CCN3CCCC3)cc2O1 [A(XXVIII)]	23.7 µM	15%	6%	374 µM	53%	16%	0%	26%	0%	15%	0%	1%	0%	15.6 µM	1980 nM			
CNC(C)Cc1ccc2c(c1)OCO2 (stereo not drawn) [MDMA, reference compound]		85%	−10%		96%	18%	3%		1%	58%	−21%	18%	28%		11000 nM	bind SERT to varying degrees	mild	Ki ([1]; read-out: SERT, Ki): 5.8 µM; EC50 (5-HT1A receptor [2]; reduction of cAMP in +5-HT1A cells stimulated with 4 μM forskolin, 20 min, read-out: 5-HT1A, EC50): > 1000 µM; α-2A, percent of control-specific binding (alpha2A (h)): 27%; Ki (5-HT2A receptor; read-out: 5-HT2A, Ki, competition with 1 nM [3H]ketanserin, test compound 3 nM to 1 mM): 39.9 µM
COc1cc2c(cc1CCN1CCCC1)OCO2 [A(XIV)]	23.2 µM	63%	12%	1.17 µM	90%	46%	0%	54%	7%	75%	7%	28%	0%	11 µM	46.2 nM		receptor modulation at evaluated ligand concentrations	
c1cc(CCN2CCCC2)c2c(c1)OCO2 [A(XXIX)]	10.1 µM	48%	0%	0.352 µM	87%	22%	2%	57%	1%	48%	3%	44%	49%	8 µM	13.2 nM			
COc1cc2c(cc1CCNCCO)OCO2 [A(XXIV)]	52.2 µM	43%	7%	32.3 µM	76%	13%	0%	11%	0%	35%	0%	29%	5%	26 µM	993 nM			
CCCOc1c(OC)cc(CCN)cc1OC [proscaline, reference compound]	251 µM	85%	−11%		97%	4%	−9%	40%	3%		−13%	25%	−2%			bind SERT to varying degrees		incidences of ESR relative to vehicle-treated control mice [4]: Elevated incidences of ESR; incidences of HTR relative to vehicle-treated control mice [5]: Elevated incidences of HTR; 5-HT1A receptor binding, binding curve in words (5-HT1A receptor [3]; FIGS. 35C-35L): binding to 5-HT1A receptor
